Measurements from patent publication EP4745135A1 (Gluetacs Therapeutics (Shanghai) Co., Ltd., priority 2023, dated 2025).

Target: T1, human Cereblon WT GST-tagged protein (Homo sapiens, UniProt Q96SW2)
T1 construct: purchased CISBIO 64BDCRBNPEH
Assay: CRBN-binding affinity, HTRF (CEREBLON BINDING kit)
Conditions: for IC50: CRBN binding, HTRF, 3 hours at room temperature, read-out: HTRF IC50; for inhibition at 0.5 µM: read-out: Inhibition Rate at 0.5 µM (%); for inhibition at 2 µM: read-out: Inhibition Rate at 2 µM (%)
Experimental: The CEREBLON BINDING kits (specification: 10,000 tests; product number: Catalog # 64BDCRBNPEH; CISBIO company) was used to determine the CRBN binding ability of the compounds to be tested through a HTRF method (homogeneous time-resolved fluorescence). The specific methods are as follows: • 1. […] Specifically, diluent #9 (1X) solution was used as the diluent, and multiple concentration gradients were set. […] Then, 2.5 µL of human Cereblon WT GST-tagged protein solution was added to each well. Finally, 5 µL of the thoroughly mixed Thalidomide-Re reagent and GST Eu antibody working solution were added to each of the aforementioned wells. […] The blank control wells were sequentially added with 2.5 µL of diluent #9 (1X) solution, 2.5 µL of PROTAC binding buffer, and 5 µL of thoroughly mixed Thalidomide-Re reagent and GST Eu antibody working solution. • 4.

T1 sequence (Q96SW2 whole entry): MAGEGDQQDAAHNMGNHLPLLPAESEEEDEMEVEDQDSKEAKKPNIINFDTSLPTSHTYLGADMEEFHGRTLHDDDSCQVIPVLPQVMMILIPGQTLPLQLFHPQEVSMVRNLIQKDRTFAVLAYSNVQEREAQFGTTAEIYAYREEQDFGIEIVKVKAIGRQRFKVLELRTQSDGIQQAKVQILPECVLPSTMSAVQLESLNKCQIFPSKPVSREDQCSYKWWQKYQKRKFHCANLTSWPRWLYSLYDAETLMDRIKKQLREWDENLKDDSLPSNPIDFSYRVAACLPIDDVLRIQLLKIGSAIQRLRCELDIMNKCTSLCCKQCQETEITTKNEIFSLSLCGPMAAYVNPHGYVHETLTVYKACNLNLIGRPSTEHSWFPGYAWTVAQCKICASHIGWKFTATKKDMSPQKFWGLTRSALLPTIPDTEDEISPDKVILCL

IC50 [nM] | inhibition at 0.5 µM [%] | inhibition at 2 µM [%] | Compound
100 to 500 | – | – | O=C1CCC(N2Cc3ccc(CN4CCc5sccc5C4)cc3C2=S)C(=O)N1 (stereo not shown) [GT-05039, 3-(6-((6,7-dihydrothieno[3,2-c]pyridin-5(4H)-yl)methyl)-1-thioxoisoindolin-2-yl)piperidine-2,6-dione]
100 to 500 | – | – | O=C1CCC(N2Cc3ccc(CN4CCN(c5nsc6ccccc56)CC4)cc3C2=S)C(=O)N1 (stereo not shown) [GT-05040, 3-(6-((4-(benzo[d]isothiazol-3-yl)piperazin-1-yl)methyl)-1-thioxoisoindolin-2-yl)piperidine-2,6-dione]
100 to 500 | – | – | O=C1CCC(N2Cc3cc(CN4CCn5c(nnc5C(F)(F)F)C4)ccc3C2=S)C(=O)N1 (stereo not shown) [GT-05090, 3-(1-thioxo-5-((3-(trifluoromethyl)-5,6-dihydro-[1,2,4]triazolo[4,3-a]pyrazin-7(8H)-yl)methyl)isoindolin-2-yl)piperidine-2,6-dione]
< 100 | – | – | O=C1CCC(N2Cc3cc(CN4CCN(c5nsc6ccccc56)CC4)ccc3C2=S)C(=O)N1 (stereo not shown) [GT-05091, 3-(5-((4-(benzo[d]isothiazol-3-yl)piperazin-1-yl)methyl)-1-thioxoisoindolin-2-yl)piperidine-2,6-dione]
< 100 | – | – | O=C1CCC(N2Cc3cc(CN4CCc5sccc5C4)ccc3C2=S)C(=O)N1 (stereo not shown) [GT-05093, 3-(5-((6,7-dihydrothieno[3,2-c]pyridin-5(4H)-yl)methyl)-1-thioxoisoindolin-2-yl)piperidine-2,6-dione]
< 100 | – | – | O=C1CCC(N2Cc3c(CO)cccc3C2=S)C(=O)N1 (stereo not shown) [GT-06981, 3-(4-(hydroxymethyl)-1-thioxoisoindolin-2-yl)piperidine-2,6-dione]
– | 60 to 80 | 80 to 100 | O=C1CCC(N2Cc3cc(CN4CCN(C(=O)C5=C(c6ccc(F)cc6)CCCC5)CC4)ccc3C2=S)C(=O)N1 (stereo not shown) [GT-08165, 3-(5-((4-(4'-fluoro-3,4,5,6-tetrahydro-[1,1'-biphenyl]-2-carbonyl)piperazin-1-yl)methyl)-1-thioxoisoindolin-2-yl)piperidine-2,6-dione]
– | 60 to 80 | 80 to 100 | O=C1CCC(N2Cc3c(CN4CCN(C(c5ccccc5)c5ccccn5)CC4)cccc3C2=S)C(=O)N1 (stereo not shown) [GT-08192, 3-(4-((4-(phenyl(pyridin-2-yl)methyl)piperazin-1-yl)methyl)-1-thioxoisoindolin-2-yl)piperidine-2,6-dione]
– | 40 to 53 | 80 to 100 | O=C1CCC(N2Cc3c(CN4CCN(C(c5ccccn5)c5ccccn5)CC4)cccc3C2=S)C(=O)N1 (stereo not shown) [GT-08201, 3-(4-((4-(di(pyridin-2-yl)methyl)piperazin-1-yl)methyl)-1-thioxoisoindolin-2-yl)piperidine-2,6-dione]
– | 53 to 60 | 80 to 100 | O=C1CCC(N2Cc3c(CN4CC5CCC4CN5C(c4ccccc4)c4ccccc4)cccc3C2=S)C(=O)N1 (stereo not shown) [GT-08233, 3-(4-((5-benzhydryl-2,5-diazabicyclo[2.2.2]octan-2-yl)methyl)-1-thioxoisoindolin-2-yl)piperidine-2,6-dione]
– | 40 to 53 | 80 to 100 | O=C1CCC(N2Cc3cc(CN4CCN(c5ccc(C(F)(F)F)cc5)CC4)ccc3C2=S)C(=O)N1 (stereo not shown) [GT-08239, 3-(1-thioxo-5-((4-(4-(trifluoromethyl)phenyl)piperazin-1-yl)methyl)isoindolin-2-yl)piperidine-2,6-dione]
– | 30 to 40 | 60 to 80 | O=C1CCC(N2Cc3c(CN4CCN(c5cccc(Br)c5)CC4)cccc3C2=S)C(=O)N1 (stereo not shown) [GT-08261, 3-(4-((4-(3-bromophenyl)piperazin-1-yl)methyl)-1-thioxoisoindolin-2-yl)piperidine-2,6-dione]
– | 30 to 40 | 60 to 80 | O=C1CCC(N2Cc3c(CN4CCN(Cc5ccccc5-c5ccc(Cl)cc5)CC4)cccc3C2=S)C(=O)N1 (stereo not shown) [GT-08295, 3-(4-((4-((4'-chloro-[1,1'-biphenyl]-2-yl)methyl)piperazin-1-yl)methyl)-1-thioxoisoindolin-2-yl)piperidine-2,6-dione]
– | 40 to 53 | 60 to 80 | CC1(C)CC(c2ccc(Cl)cc2)=C(CN2CCN(Cc3cccc4c3CN(C3CCC(=O)NC3=O)C4=S)CC2)CO1 (stereo not shown) [GT-08296, 3-(4-((4-((4-(4-chlorophenyl)-6,6-dimethyl-5,6-dihydro-2H-pyran-3-yl)methyl)piperazin-1-yl)methyl)-1-thioxoisoindolin-2-yl)piperidine-2,6-dione]
– | 60 to 80 | 80 to 100 | O=C1CCC(N2Cc3c(CN4CCN(c5cccs5)CC4)cccc3C2=S)C(=O)N1 (stereo not shown) [GT-08297, 3-(4-((4-(thiophen-2-yl)piperazin-1-yl)methyl)-1-thioxoisoindolin-2-yl)piperidine-2,6-dione]
– | 30 to 40 | 60 to 80 | Cc1ccc(N2CCN(Cc3ccc4c(c3)CN(C3CCC(=O)NC3=O)C4=S)CC2)c(C)c1 (stereo not shown) [GT-08614, 3-(5-((4-(2,4-dimethylphenyl)piperazin-1-yl)methyl)-1-thioxoisoindolin-2-yl)piperidine-2,6-dione]
– | 53 to 60 | 80 to 100 | O=C1CCC(N2Cc3c(CN4CCN(c5ncccc5C(F)(F)F)CC4)cccc3C2=S)C(=O)N1 (stereo not shown) [GT-08700, 3-(1-thioxo-4-((4-(3-(trifluoromethyl)pyridin-2-yl)piperazin-1-yl)methyl)isoindolin-2-yl)piperidine-2,6-dione]
– | 53 to 60 | 80 to 100 | Cc1cc(N2CCN(Cc3cccc4c3CN(C3CCC(=O)NC3=O)C4=S)CC2)ccn1 (stereo not shown) [GT-08727, 3-(4-((4-(2-methylpyridin-4-yl)piperazin-1-yl)methyl)-1-thioxoisoindolin-2-yl)piperidine-2,6-dione]
– | 60 to 80 | 80 to 100 | O=C1CCC(N2Cc3c(CN4CCN(c5ccnc(F)c5F)CC4)cccc3C2=S)C(=O)N1 (stereo not shown) [GT-08736, 3-(4-((4-(2,3-difluoropyridin-4-yl)piperazin-1-yl)methyl)-1-thioxoisoindolin-2-yl)piperidine-2,6-dione]
– | 60 to 80 | 80 to 100 | O=C1CCC(N2Cc3c(CN4CCC(c5noc6ccccc56)CC4)cccc3C2=S)C(=O)N1 (stereo not shown) [GT-08816, 3-(4-((4-(benzo[d]isoxazol-3-yl)piperidin-1-yl)methyl)-1-thioxoisoindolin-2-yl)piperidine-2,6-dione]
– | 40 to 53 | 80 to 100 | O=C1CCC(N2Cc3c(CN4CCC(C5CCOc6cc(F)ccc65)CC4)cccc3C2=S)C(=O)N1 (stereo not shown) [GT-08854, 3-(4-((4-(7-fluorochroman-4-yl)piperidin-1-yl)methyl)-1-thioxoisoindolin-2-yl)piperidine-2,6-dione]
– | 30 to 40 | 80 to 100 | Cc1nc(N2CCN(Cc3cccc4c3CN(C3CCC(=O)NC3=O)C4=S)CC2)c2c(-c3ccccc3)csc2n1 (stereo not shown) [GT-08921, 3-(4-((4-(2-methyl-5-phenylthieno[2,3-d]pyrimidin-4-yl)piperazin-1-yl)methyl)-1-thioxoisoindolin-2-yl)piperidine-2,6-dione]
– | 60 to 80 | 80 to 100 | O=C1CCC(N2Cc3c(CN4CCN(c5nc6c(c(N7CCOCC7)n5)SCC6)CC4)cccc3C2=S)C(=O)N1 (stereo not shown) [GT-08969, 3-(4-((4-(4-morpholino-6,7-dihydrothieno[3,2-d]pyrimidin-2-yl)piperazin-1-yl)methyl)-1-thioxoisoindolin-2-yl)piperidine-2,6-dione]
– | 40 to 53 | 60 to 80 | O=C1CCC(N2Cc3c(CN4CCC(Nc5ccccc5-c5ccc(Cl)cc5)CC4)cccc3C2=S)C(=O)N1 (stereo not shown) [GT-09034, 3-(4-((4-((4'-chloro-[1,1'-biphenyl]-2-yl)amino)piperidin-1-yl)methyl)-1-thioxoisoindolin-2-yl)piperidine-2,6-dione]
– | 60 to 80 | 80 to 100 | O=C1CCC(N2Cc3c(CN4CCN(c5nc6c(c(N7CCNCC7)n5)SCC6)CC4)cccc3C2=S)C(=O)N1 (stereo not shown) [GT-09035, 3-(4-((4-(4-(piperazin-1-yl)-6,7-dihydrothieno[3,2-d]pyrimidin-2-yl)piperazin-1-yl)methyl)-1-thioxoisoindolin-2-yl)piperidine-2,6-dione]

Compound | IC50 [nM] | inhibition at 0.5 µM [%] | inhibition at 2 µM [%]
O=C1CCC(N2Cc3cc(CN4CC5CCC(C4)N5C(c4ccccc4)c4ccccc4)ccc3C2=S)C(=O)N1 (stereo not shown) [GT-07849, 3-(5-((8-benzhydryl-3,8-diazabicyclo[3.2.1]octan-3-yl)methyl)-1-thioxoisoindolin-2-yl)piperidine-2,6-dione] | – | 30 to 40 | 60 to 80
O=C1CCC(N2Cc3c(CN4CC5CCC(C4)N5C(c4ccccc4)c4ccccc4)cccc3C2=S)C(=O)N1 (stereo not shown) [GT-08234, 3-(4-((8-benzhydryl-3,8-diazabicyclo[3.2.1]octan-3-yl)methyl)-1-thioxoisoindolin-2-yl)piperidine-2,6-dione] | – | 40 to 53 | 60 to 80
O=C1CCC(N2Cc3c(CN4CCC(N(c5ccccc5)c5ccccn5)CC4)cccc3C2=S)C(=O)N1 (stereo not shown) [GT-08243, 3-(4-((4-(phenyl(pyridin-2-yl)amino)piperidin-1-yl)methyl)-1-thioxoisoindolin-2-yl)piperidine-2,6-dione] | – | 20 to 30 | 60 to 80
O=C1CCC(N2Cc3c(CN4CC=C(c5cccs5)CC4)cccc3C2=S)C(=O)N1 (stereo not shown) [GT-08299, 3-(4-((4-(thiophen-2-yl)-3,6-dihydropyridin-1 (2H)-yl)methyl)-1-thioxoisoindolin-2-yl)piperidine-2,6-dione] | – | 53 to 60 | 60 to 80
